From patent US20170015696A1, “SOLID STATE FORMS OF SOFOSBUVIR” (RATIOPHARM GMBH, priority 2014, published 2017) come the findings set out here.

The data set can be described thus: Storage stability of the solid state form at ambient conditions. Type of data set: physicochemical. To be noted: stored at ambient conditions (e.g., 1 atmosphere at RT). The text has this:
Form A has certain advantageous properties as discussed above. Particularly, form A is stable for a period of 16 months when stored at ambient conditions (e.g., 1 atmosphere at RT).

Consider `CC(C)OC(=O)[C@H](C)N[P@](=O)(OC[C@H]1O[C@@H](n2ccc(=O)[nH]c2=O)[C@](C)(F)[C@@H]1O)Oc1ccccc1` [form A, Sofosbuvir], for which the “period for which the form is stable when stored” value was found to be 16 months.
